Measurements: patent publication US20120010075A1 (priority 2009, published 2012)
Like-named read-outs stand apart in the source and are kept apart here.

What was measured:
Phytophthora infestans = assay type: in vivo, Phytophthora infestans on tomato; conditions: applied 24 h before inoculation, assessed 7 days after inoculation
[1] = system: Leptosphaeria nodorum (LEPTNO); experiment: In vitro fungitoxicity of hydrazones with and without copper towards Leptosphaeria nodorum (Example 26); assay type: cell-based; conditions: 72 h at 25° C.; for inhibition of growth at 0.05 µg/mL: Parastagonospora nodorum, 72 h, read-out: LEPTNO % Inhn. Minus Copper Observed
[2] = hydrazone 50 ppm + 50 μM CuCl2.2H2O, tomato
[3] = compound 0.05 μg/mL, copper-minus medium
[4] = compound 0.05 μg/mL, copper-plus medium (CuCl2.2H2O)
[5] = hydrazone 50 ppm with 50 μM CuCl2.2H2O, tomato late blight
[6] = copper-minus medium, test compound Concn. 0.05 μg/mL
[7] = copper-plus medium (CuCl2 10 μM), test compound Concn. 0.05 μg/mL

C/C(=N\NC(=O)c1ccc(C)cc1)c1cccc([N+](=O)[O-])c1O [Example 271]
melting point: 242 to 249 °C | TLB % Control (Phytophthora infestans; [2]): 61.0% | inhibition of growth at 0.05 µg/mL [1, 3]: 6.9% | LEPTNO % Inhn. Plus Copper Observed [1, 4]: 98.9%

C/C(=N\NC(=O)c1ccc(C)cc1)c1cccc(Cl)c1O [Example 495]
melting point: 195 to 200 °C | TLB % Control (Phytophthora infestans; [5]): 91.0% | inhibition of growth at 0.05 µg/mL [1, 6]: 0% | LEPTNO % Inhn. Plus Copper Observed [1, 7]: 97.3%

C/C(=N\NC(=O)c1ccc(Br)cc1)c1cc(F)cc(F)c1O [Example 580]
melting point: 268 to 270 °C | TLB % Control (Phytophthora infestans; [5]): 97.0% | inhibition of growth at 0.05 µg/mL [1, 6]: 3.1% | LEPTNO % Inhn. Plus Copper Observed [1, 7]: 98.1%

O=C(N/N=C/c1cc(Cl)cc(Br)c1O)c1cc(Cl)ccc1Cl [Example 196]
melting point: 169 to 173 °C | TLB % Control (Phytophthora infestans; [2]): 94.5% | inhibition of growth at 0.05 µg/mL [1, 3]: 4.4% | LEPTNO % Inhn. Plus Copper Observed [1, 4]: 97.7%

COc1ccc(O)c(/C(C)=N/NC(=O)c2ccc(Cl)cc2)c1 [Example 267]
melting point: 193 to 196 °C | TLB % Control (Phytophthora infestans; [2]): 33.0% | inhibition of growth at 0.05 µg/mL [1, 3]: 5.7% | LEPTNO % Inhn. Plus Copper Observed [1, 4]: 98.3%

C/C(=N\NC(=O)c1ccccc1C)c1cc(Cl)ccc1O [Example 505]
melting point: 192 to 193 °C | TLB % Control (Phytophthora infestans; [5]): 46.0% | inhibition of growth at 0.05 µg/mL [1, 6]: 7.1% | LEPTNO % Inhn. Plus Copper Observed [1, 7]: 97.3%

COc1cc(O)c(/C(C)=N/NC(=O)c2ccc(Cl)cc2)c(OC)c1 [Example 568]
melting point: 136 to 140 °C | TLB % Control (Phytophthora infestans; [5]): 61.0% | inhibition of growth at 0.05 µg/mL [1, 6]: 8% | LEPTNO % Inhn. Plus Copper Observed [1, 7]: 94.3%

O=C(N/N=C/c1ccc(Cl)c(Cl)c1O)c1ccc(F)cc1 [Example 357]
melting point: 244 to 246 °C | TLB % Control (Phytophthora infestans; [5]): 93.0% | inhibition of growth at 0.05 µg/mL [1, 6]: 56.7% | LEPTNO % Inhn. Plus Copper Observed [1, 7]: 97.4%

Cc1ccc(O)c(/C=N/NC(=O)c2ccccc2)c1 [Example 235]
melting point: 192 to 193 °C | TLB % Control (Phytophthora infestans; [2]): 80.0% | inhibition of growth at 0.05 µg/mL [1, 3]: 0% | LEPTNO % Inhn. Plus Copper Observed [1, 4]: 96.3%

COc1ccc(/C(C)=N/NC(=O)c2ccc(Br)cc2)c(O)c1OC [Example 559]
melting point: 241 to 245 °C | TLB % Control (Phytophthora infestans; [5]): 93.0% | inhibition of growth at 0.05 µg/mL [1, 6]: 10% | LEPTNO % Inhn. Plus Copper Observed [1, 7]: 97.3%

COc1cccc(C(=O)N/N=C/c2cc(Cl)ccc2O)c1C [Example 133]
melting point: 122 to 128 °C | TLB % Control (Phytophthora infestans; [2]): 71.9% | inhibition of growth at 0.05 µg/mL [1, 3]: 8.8% | LEPTNO % Inhn. Plus Copper Observed [1, 4]: 98.5%

O=C(N/N=C(/c1cc(Cl)cc(Cl)c1O)C1CC1)c1ccccc1 [Example 589]
melting point: 218 to 219 °C | TLB % Control (Phytophthora infestans; [5]): 61.0% | inhibition of growth at 0.05 µg/mL [1, 6]: 8.7% | LEPTNO % Inhn. Plus Copper Observed [1, 7]: 97.9%

O=C(N/N=C/c1c(F)ccc(F)c1O)c1ccccc1 [Example 244]
melting point: 206 to 207 °C | TLB % Control (Phytophthora infestans; [2]): 62.7% | inhibition of growth at 0.05 µg/mL [1, 3]: 0% | LEPTNO % Inhn. Plus Copper Observed [1, 4]: 96.1%

CNc1ccc(C(=O)N/N=C/c2cc(Cl)cc(Cl)c2O)cc1 [Example 259]
melting point: 245 to 253 °C | TLB % Control (Phytophthora infestans; [2]): 32.0% | inhibition of growth at 0.05 µg/mL [1, 3]: 9.9% | LEPTNO % Inhn. Plus Copper Observed [1, 4]: 97.9%

COc1cccc(C(=O)N/N=C/c2cc(Cl)cc(Br)c2O)c1C [Example 132]
melting point: 187 to 189 °C | TLB % Control (Phytophthora infestans; [2]): 65.5% | inhibition of growth at 0.05 µg/mL [1, 3]: 9.1% | LEPTNO % Inhn. Plus Copper Observed [1, 4]: 97.7%

O=C(N/N=C/c1cc(C(F)(F)F)cc(Cl)c1O)c1cccc([N+](=O)[O-])c1 [Example 327]
melting point: 237 to 238 °C | TLB % Control (Phytophthora infestans; [5]): 98.0% | inhibition of growth at 0.05 µg/mL [1, 6]: 1.2% | LEPTNO % Inhn. Plus Copper Observed [1, 7]: 95.7%

Cc1ccc(C(=O)N/N=C(\CCc2ccccc2)c2ccccc2O)c(C)c1 [Example 35]
melting point: 162 to 166 °C | TLB % Control (Phytophthora infestans; [2]): 0.0% | LEPTNO % Inhn. Minus Copper Observed [1, 3]: 3.8% | LEPTNO % Inhn. Plus Copper Observed [1, 4]: 96.5%
